What was measured:
NGF = biological target: T1, NGF (Mus musculus, UniProt P01139); assay: NGF protomer crosslinking with BS3 (NGF conformation), metal ions; type: biochemical; settings: for NGF Protomer Conformation (active/inactive): 100 μM; for NGF monomer crosslinking by BS3: 0.1 nM 125I-NGF, CaEDTA together with Zn2+
T1 construct: homodimer
Description: For crosslinking NGF […], 0.4 mM BS^3 was added to the mixture and incubated for 30 minutes at 25° C. […] For CD studies, NGF (50 μg/ml) was dissolved in 50 mM Tris-HCl buffer and spectra recorded using a computer controlled Jasco J-600 spectropolarimeter. Samples were acquired in the absence or presence of Zn^2+ (100 μM) at 22° C. in a 2 mm quartz cell averaged over eight scans. Modification of His residues by DEPC was carried out as previously described, where the molar excess of DEPC added and the extent of reaction was determined by evaluating the loss of binding activity of the modified product.

p75^NTR and TrkA [1] = biological target: T2, p75^NTR and TrkA (Mus musculus, UniProt P01139); assay: Binding of 125I-NGF to PC12 cells (p75NTR + TrkA); design: species or system rat; settings: 120 min; for Total Binding to PC12 cells: 125I-NGF; for steady-state specific binding of 125I-NGF (0.5 nM) to p75NTR and TrkA: ± SEM
T2 construct: these cells express both NGF receptor types; endogenous in cells; host or cells: PC12 rat pheochromocytoma cells
T2 sequence (P01139 122-239): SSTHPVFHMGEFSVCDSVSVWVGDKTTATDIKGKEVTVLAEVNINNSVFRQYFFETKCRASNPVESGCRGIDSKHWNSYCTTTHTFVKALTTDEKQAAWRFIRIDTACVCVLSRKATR
Description: (§1) PC12 cells were grown in RPMI with 10% heat inactivated donor horse serum and 5% fetal calf serum. […] The tubes were incubated for 2 hr at 4° C. and 100 μl aliquots (providing triplicate data points for each sample) were transferred to 400 μl microcentrifuges containing 200 μl of 10% glycerol in HKR. Tubes were centrifuged for 2 minutes at 5,000 rpm, the tip containing the cell pellet cut off and radioactivity bound to the cells was determined.

p75^NTR and TrkA [2] = test system: T3, p75^NTR and TrkA; assay: Binding of 125I-NGF to PC12 cells (p75NTR + TrkA); design: species or system rat; settings: for Inhibition of 125I-NGF binding: 100 μM, CaEDTA together with Zn2+
T3 construct: these cells express both NGF receptor types; endogenous in cells; host or cells: PC12 rat pheochromocytoma cells
T3 sequence (P01139 122-239): as above
Description: as §1

p75^NTR /TrkA [3] = assay: Receptor crosslinking of 125I-NGF with transition metal ions (receptor selectivity); type: binding
Chain of p75^NTR /TrkA (P01139 122-239): as above
Chain of p75^NTR /TrkA (P07174 30-425 partner): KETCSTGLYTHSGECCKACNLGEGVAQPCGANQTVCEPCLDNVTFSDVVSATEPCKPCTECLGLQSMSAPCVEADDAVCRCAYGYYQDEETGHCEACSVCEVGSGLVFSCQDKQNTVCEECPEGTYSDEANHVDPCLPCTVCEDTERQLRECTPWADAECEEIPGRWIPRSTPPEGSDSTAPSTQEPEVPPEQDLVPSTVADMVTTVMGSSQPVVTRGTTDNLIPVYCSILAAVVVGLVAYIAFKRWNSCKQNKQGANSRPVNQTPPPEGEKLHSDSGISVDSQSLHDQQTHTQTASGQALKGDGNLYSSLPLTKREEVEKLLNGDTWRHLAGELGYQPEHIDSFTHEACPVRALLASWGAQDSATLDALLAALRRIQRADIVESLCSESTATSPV
Chain of p75^NTR /TrkA (P35739 33-799 partner): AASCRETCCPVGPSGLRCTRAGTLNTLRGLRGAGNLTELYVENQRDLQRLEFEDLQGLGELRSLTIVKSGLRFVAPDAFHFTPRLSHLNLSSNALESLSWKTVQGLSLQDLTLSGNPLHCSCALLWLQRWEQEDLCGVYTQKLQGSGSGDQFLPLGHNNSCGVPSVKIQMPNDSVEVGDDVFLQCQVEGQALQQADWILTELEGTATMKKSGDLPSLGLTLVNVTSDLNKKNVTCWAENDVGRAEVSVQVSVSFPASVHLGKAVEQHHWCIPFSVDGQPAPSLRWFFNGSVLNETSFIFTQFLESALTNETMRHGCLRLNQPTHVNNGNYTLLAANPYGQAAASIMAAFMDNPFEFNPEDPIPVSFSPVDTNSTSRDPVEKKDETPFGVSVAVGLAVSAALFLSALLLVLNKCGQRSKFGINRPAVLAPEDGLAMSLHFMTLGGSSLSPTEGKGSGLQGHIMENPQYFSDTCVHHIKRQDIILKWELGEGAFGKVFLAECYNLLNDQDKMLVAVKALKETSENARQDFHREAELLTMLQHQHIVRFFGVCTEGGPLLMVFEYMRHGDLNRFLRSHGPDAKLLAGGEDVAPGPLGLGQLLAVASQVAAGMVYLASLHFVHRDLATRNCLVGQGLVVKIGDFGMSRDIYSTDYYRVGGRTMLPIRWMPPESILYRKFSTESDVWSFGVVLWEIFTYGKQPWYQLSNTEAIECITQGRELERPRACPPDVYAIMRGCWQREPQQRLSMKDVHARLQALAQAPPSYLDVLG
Description: (§2) To explore the ability of other transition metals to influence the biological activities of NGF, a series of cations known to mimic in certain respects the binding of zinc to proteins were tested. […] For this reason these ions were not tested in NGF- dependant growth phenomena. […] As these studies appeared to indicate potentially complex results upon metal ions binding to NGF, a receptor crosslinking system where specific receptor types could be identified was utilized.

p75^NTR /TrkA [4] = biological target: p75^NTR /TrkA (Mus musculus, UniProt P01139); assay: as above; type: binding; settings: 100 μM
Chain of p75^NTR /TrkA (Mus musculus, UniProt P01139) (P01139 122-239): as the sequence (P01139 122-239) above
Chain of p75^NTR /TrkA (Mus musculus, UniProt P01139) (P07174 30-425 partner): as the sequence (P07174 30-425 partner) above
Chain of p75^NTR /TrkA (Mus musculus, UniProt P01139) (P35739 33-799 partner): as the sequence (P35739 33-799 partner) above
Description: as §2

PC12 cells [5] = assay: Toxicity to PC12 cells; type: cell-based, rat; settings: for Toxicity (PC12 cell viability): 100 μM; for Toxicity to PC12 cells: in presence of serum, up to 100 μM
Description: (§3) Effects of divalent ions on NGF mediated survival and toxicity was evaluated using a colorimetric assay for the lysosomal enzyme acid phosphatase to determine cell number (Connolly, D. T., Knight, M. B., Harakas, N. K, Wittwer, A. J. & Feder, J. Determination of the number of endothelial cells in culture using an acid phosphatase assay. Anal. Biochem. 152, 136-140 (1986); Ueda, Y., Walsh, E., Nakanishi H. & Yoshida, K. A. colorometric assay method for the evaluation of neurotrophic activity in vitro. Neurosci. Lett. 165, 203-207 (1994)). […] To evaluate toxicity, the cells were seeded and maintained without NGF in RPMI with 10% heat inactivated donor horse serum and 5% fetal calf serum in the presence of additives. Loss in viable cell number was determined and expressed as a percent of control. NGF rescues PC12 cells from cell death in serum-free medium(Greene, L. A. Nerve growth factor prevents the death and stimulates neuronal differentiation of clonal PC12 pheochromocytoma cells in serum-free medium. J. Cell Biol. 78, 747-755 (1978)). NGF-dependent survival was assessed by harvesting PC12 cells in balanced salt solution followed with washing by 4 cycles of suspension and centrifugation in serum-free RPMI prior to seeding in 96 well plates. After incubation with additives, medium was removed from the wells and cells washed once with 200 μl PBS. Buffer containing 0.1M sodium acetate pH 5.5, 0.1% Triton X-100 and 10 mM p-nitrophenyl phosphate (Sigma 104 phosphatase substrate) was added to each well (100 μl). Plates were incubated at 37° C. for 3 hours. The reaction was stopped by the addition of 10 μl/well of 1N sodium hydroxide and the color development measured at 405 nm using a microplate reader. The relationship between cell number and enzyme activity was linear over the range 1000 to 15,000 cells.
as §2

PC12 cells [6] = assay: NGF-dependent survival of PC12 cells; type: cell-based, rat; settings: for Antagonism of NGF-dependent survival: high (1 nM) or low (50 pM) NGF; for NGF-mediated survival of PC12 cells: serum-free, CaEDTA together with Zn2+
Description: as §3, §2

TrkA receptor = assay: NGF-dependent TrkA phosphorylation in PC12 cells, metal ions; type: cell-based, rat; settings: for NGF-induced TrkA phosphorylation: 100 μM, PC12 cells
Description: Zn^2+ and/or other additives were allowed to equilibrate with NGF for 2 hours at 4° C. prior to addition of cells. PC12 cells were used at 10^6 cells/ml and incubated with 40 pM NGF for 15 minutes at 37° C. At the conclusion of the reaction, cells were washed, lysed in TBS containing 10% glycerol, 1% Triton X-100, 1 mM PMSF, 10 μg/ml aprotinin, 1 μg/ml leupeptin and 500 μM orthovanadate (lysis buffer, 10^8 cells/ml). The cellular debris was removed by centrifugation and the soluble proteins incubated with an anti-TrkA cytoplasmic domain antibody. Antibody complexes were isolated by incubating with immobilized protein G (Pierce Ultralink; 70 μl of a 50% slurry) for 2 hours at 4° C. The solid phase was washed extensively with lysis buffer and the pellet dissolved in SDS sample buffer. Proteins were resolved using 6% SDS PAGE and Western analysis performed with anti-phosphotyrosine 4G10 (UBI) visualized with ECL (Amersham).

TrkA = test system: T4, TrkA; assay: Binding of 125I-NGF to TrkA on PC12 cells (p75NTR blocked with BDNF); design: species or system rat; settings: 100 μM CaEDTA with 100 μM Zn2+; 40 nM BDNF; ± SEM; 120 min
T4 construct: Receptor cross-linking studies were performed on PC12 rat pheochromocytoma cells; endogenous in cells; host or cells: PC12 rat pheochromocytoma cells (ATCC CRL 1721)
T4 sequence (P01139 122-239): as the sequence (P01139 122-239) above
Description: as §1

DRG neurons = assay: NGF-mediated neurite outgrowth of DRG neurons, metal ions; type: cell-based, chick; settings: 100 μM
Description: Dissosiated cells enriched for sensory neurons were prepared from ED8 chick DRG as described (Dostaler, S. M. et al. Characterization of a distinctive motif of the low molecular weight neurotrophin receptor that modulates NGF-mediated neurite growth. Eur. J. Neurosci. 8, 870-879 (1996)). Neurons were seeded at a density of 800-1000 cells/well in Ham's F-12 containing 5% FCS and NGF at 10 pM into wells of Terasaki plates treated with polyysine. The cells were incubated with the indicated additives at 37° C. in a 5% CO2 atmosphere. The cells on the entire lower horizontal surface of the well were scored for neurite growth at 18-20 hours using an inverted microscope fitted with phase contrast optics. A neurite was scored if its caliber from the origin to terminal was constant and its length was equal to or greater than 1.5 cell body diameters. Neurite growth was corrected for background (no NGF).

T1 sequence (P01139 122-239): as above

Compound | NGF Protomer Conformation (active/inactive) (NGF) | Total Binding to PC12 cells (p75^NTR and TrkA [1]; 100 μM) [% control] | Prevention of 125I-NGF binding to PC12 cells (p75^NTR and TrkA [2]) | Blocking of NGF binding to TrkA and p75NTR in receptor crosslinking (p75^NTR /TrkA [3]) | Receptor Selectivity (p75NTR/TrkA) (p75^NTR /TrkA [4]) | Toxicity (PC12 cell viability) (PC12 cells [5]) [% control] | Antagonism of NGF-dependent survival (PC12 cells [6]) | NGF-induced TrkA phosphorylation (TrkA receptor) | NGF monomer crosslinking by BS3 (NGF) | Inhibition of 125I-NGF binding (p75^NTR and TrkA [2]) | NGF-mediated survival of PC12 cells (PC12 cells [6]; 100 μM) | NGF-induced neurite extension (DRG neurons) | steady-state specific binding of 125I-NGF (0.5 nM) to p75NTR and TrkA (p75^NTR and TrkA [1]; 100 μM) [% Control] | Toxicity to PC12 cells (PC12 cells [5]) | further results
[Au+3] [Au^3+] | active | 107 ± 4 | did not show appreciable inhibition | selective for blocking the binding of NGF to TrkA but did not prevent the binding of NGF to p75^NTR | TrkA only | 102 ± 13 | ability to antagonize the NGF-dependant survival | – | – | – | – | – | – | – | Survival @ 50 pM NGF (PC12 cells [6]; rat, pc12 cells, 100 µM): 0.1 ± 9 % control; Survival @ 1 nM NGF (PC12 cells [6]; rat, pc12 cells, 100 µM): -8 ± 5 % control
O=C([O-])CN(CCN(CC(=O)[O-])CC(=O)[O-])CC(=O)[O-].[Ca+2].[Na+].[Na+] [CaEDTA, reference compound] | – | – | – | – | – | – | – | Neither Ca^2+, Mg^2+ nor CaEDTA had a significant effect | prevented the Zn^2+ effects | Inhibitory effects of Zn^2+ could also be prevented | reversed | – | – | – | Reversal of Zn2+ inhibition of TrkA phosphorylation (TrkA receptor; CaEDTA 100 μM with Zn2+ 100 μM): reversed by CaEDTA; steady-state specific binding of 125I-NGF (0.5 nM) to TrkA (TrkA): 87 ± 13 % Control; steady-state specific binding of 125I-NGF (0.5 nM) to p75NTR and TrkA (p75^NTR and TrkA [1]; 100 μM CaEDTA with 100 μM Zn2+): 78 ± 19 % Control
[Ca+2] [Ca^2+, reference compound] | – | – | – | – | – | – | – | not detected | no effect on crosslinking efficiency | neither Ca^2+ nor Mg^2+ displayed significant inhibition | no effect | no effect | 91 ± 7 | not toxic | –
[Mg+2] [Mg^2+, reference compound] | – | – | – | – | – | – | – | not detected | no effect on crosslinking efficiency | neither Ca^2+ nor Mg^2+ displayed significant inhibition | no effect | no effect | 88 ± 13 | not toxic | –
[Ni+2] [Ni^2+] | inactive | 69 ± 18 | did not show appreciable inhibition | selective for blocking the binding of NGF to TrkA but did not prevent the binding of NGF to p75^NTR | TrkA only | 100 ± 19 | ability to antagonize the NGF-dependant survival | – | – | – | – | – | – | – | Effect on conformation of NGF in protomer crosslinking (NGF): did not appear to have an effect on the conformation; Survival @ 50 pM NGF (PC12 cells [6]; 100 μM, 50 pM NGF): 15 ± 13 % control; Survival @ 1 nM NGF (PC12 cells [6]; 100 μM, 1 nM NGF): 23 ± 10 % control

Reference: patent US6291247A, “Methods of screening for factors that disrupt neurotrophin conformation and reduce neurotrophin biological activity” (priority 1996, dated 2001)
